Test results as given in patent US11467161B2, “Biomarkers of therapeutic responsiveness” (Meso Scale Technologies, LLC., priority 2013, dated 2022).
Where two headings read alike, the source gives them in different places.

How the values were obtained:
A375 xenograft = assay: Biomarker levels in A375 control melanoma xenograft tumor extracts (MSD multiplex immunoassay); type: in vivo, mice
Method: (§1) A panel of biomarkers was measured in Melanoma and RCC xenograft tissue extracts from mice, described in Table 4. Xenografts were generated using the listed melanoma and RCC cell lines, and tumors harvested and extracted following the indicated treatments. SKMEL5 cells were used with or without transfection to express constitutively active GSK3β. A375 cells were used with or without transfection to express GSK3β specific shRNA under a doxycycline-controlled promoter.
(§2) Multiplex immunoassay kits were used for detection of total and/or phosphorylated biomarkers (supplied by Meso Scale Discovery, a division of Meso Scale Diagnostics, LLC, Rockville, Md.). Levels of each biomarker were determined by calibration of the assays with were either purified calibrator proteins or using control cell lysates from appropriately treated cultured cell lines (e.g., cells subjected to conditions known to induce or reduce levels of a specific biomarker). Calibration curves were derived by testing serial dilutions of the calibrator lysates or purified proteins. Levels of biomarkers in test samples were back-calculated from the calibration curves and were expressed in terms of wt. (or arbitrary Units for phospho-protein markers) of protein per weight of tissue extract (for purified calibrators) or in terms of weight of crude control lysate protein per well (for lysate calibrators). Titrations of tumor extracts were carried out to determine the linearity of the assay response to sample dilution and to select the sample dilution that would be appropriate to use for each assay panel.
(§3) In general, the assay format was as follows, with minor alterations for specific assay panels as indicated in the assay protocols provided with each assay kit (supplied by Meso Scale Discovery, Rockville, Md.): (1) block MSD MULTI-SPOT® plate for 1 hour with appropriate MSD® blocking solution and wash; (2) add 25 μl assay diluent to each well, if specified; (3) add 25 μl calibrator, or sample (diluted as appropriate) to each well; (4) incubate with shaking for 1-3 hours (time as specified) and wash the well; (5) add 25 μl labeled detection antibody solution to each well; (6) incubate with shaking for 1-2 hours (time as specified) and wash the well; (7) add 150 μl MSD read buffer to each well; (8) read plate immediately on MSD SECTOR® Imager 6000 Reader (supplied by Meso Scale Discovery, Rockville, Md.).
(§4) Tumor tissue extracts were assayed at 5-10 μg/well total protein per well. Samples from each set were assayed on the same plate. […] The signals obtained are not normalized to any housekeeping tissue factor, which may serve to improve animal-to-animal reproducibility, but are normalized to total lysate protein.
(§5) Samples that were not treated with drug are designated as (−) and those treated with drug as (+).

[1] = tested on: SKMEL5 (active GSK3beta) xenograft; assay: Biomarker levels in SKMEL5 GSK3β+ (active GSK3beta) melanoma xenograft tumor extracts (MSD multiplex immunoassay); type: in vivo, mice
Method: as §1, §2, §3, §4, §5

SKMEL5 xenograft = assay: Biomarker levels in SKMEL5 wt melanoma xenograft tumor extracts (MSD multiplex immunoassay); type: in vivo, mice
Method: as §1, §2, §3, §4, §5

[2] = tested on: A375 (GSKshRNA) xenograft; assay: Biomarker levels in A375 GSK3β shRNA melanoma xenograft tumor extracts (MSD multiplex immunoassay); type: in vivo, mice
Method: as §1, §2, §3, §4, §5

786-0 xenograft = assay: Biomarker levels in 786-0 RCC xenograft tumor extracts (MSD multiplex immunoassay); type: in vivo, mice
Method: as §1, §2, §3, §4, §5

[3] = tested on: A375 (GSKshRNA) xenograft + doxycycline; assay: Biomarker levels in A375 shRNA + Dox melanoma xenograft tumor extracts (MSD multiplex immunoassay); type: in vivo, mice; conditions: A375 shRNA + Dox tumor extract, sorafenib (+), mean
Method: as §1, §2, §3, §4, §5

A375 cells = conditions: cited from earlier work
A498 xenograft = assay: Biomarker levels in A498 RCC xenograft tumor extracts (MSD multiplex immunoassay); type: in vivo, mice; conditions: A498 tumor extract, sunitinib (+), mean
Method: as §1, §2, §3, §4, §5

[4] = A375 control tumor extract, sorafenib (+), mean
[5] = wild type A375 tumors, sorafenib
[6] = SKMEL5 GSK3β+ tumor extract, sorafenib (+), mean
[7] = SKMEL5 wt tumor extract, sorafenib (+), mean
[8] = A375 GSK3β shRNA tumor extract, sorafenib (+), mean
[9] = 786-0 tumor extract, sunitinib (+), mean

CNC(=O)c1cc(Oc2ccc(NC(=O)Nc3ccc(Cl)c(C(F)(F)F)c3)cc2)ccn1 [sorafenib]
Akt (A375 xenograft; [4]): 5.3 pg/ug pr | GSK3β (A375 xenograft; [4]): 84 pg/ug pr | Rb (A375 xenograft; [4]): 3.45 pg/ug pr | SRFP-1 (A375 xenograft; [4]): 1.30 pg/ug pr | Wnt3A (A375 xenograft; [4]): 23.2 pg/ug pr | c-Met (A375 xenograft; [4]): 0.23 ng/ug pr | dephospho β-catenin (A375 xenograft; [4]): 7.3 Units/ug pr | phospho-Rb (A375 xenograft; [4]): 0.21 Units/ug pr | phospho-cMet (A375 xenograft; [4]): 3.6 pg lys cal/ug pr | phosphor-Akt (A375 xenograft; [4]): 8.5 Units/ug pr | β-catenin (A375 xenograft; [4]): 32 pg/ug pr | change in total Rb levels with treatment (A375 xenograft; control A375, sorafenib, most samples at or below detection limits): increase in its levels | change in phospho-GSK3β with treatment (A375 xenograft; [5]): no changes | change in total GSK3β with treatment (A375 xenograft; [5]): no changes | Akt [1, 6]: 32.4 pg/ug pr | E-Cadherin [1, 6]: 0.0 pg/ug pr | GSK3β [1, 6]: 88 pg/ug pr | Rb [1, 6]: 0.63 pg/ug pr | SRFP-1 [1, 6]: 0.22 pg/ug pr | VEGF [1, 6]: 7.2 pg/ug pr | c-Met [1, 6]: 0.59 ng/ug pr | dephospho β-catenin [1, 6]: 12.6 Units/ug pr | phospho-GSK3β [1, 6]: 7.9 Units/ug pr | phospho-Rb [1, 6]: 0.53 Units/ug pr | phospho-cMet [1, 6]: 7.2 pg lys cal/ug pr | phosphor-Akt [1, 6]: 14.3 Units/ug pr | β-catenin [1, 6]: 39 pg/ug pr | change in E-cadherin levels with treatment ([1]; SKMEL5 transfected (active GSK3β), sorafenib): no additional effect | change in E-cadherin levels with treatment (SKMEL5 xenograft; SKMEL5 not transfected, sorafenib): no additional effect | change in phospho-Akt levels with treatment (SKMEL5 xenograft; SKMEL5 tumors, sorafenib): unchanged phospho-Akt levels | change in total Akt levels with treatment (SKMEL5 xenograft; SKMEL5 tumors, sorafenib): reduced levels of total Akt | Akt (SKMEL5 xenograft; [7]): 22.3 pg/ug pr | E-Cadherin (SKMEL5 xenograft; [7]): 10.9 pg/ug pr | GSK3β (SKMEL5 xenograft; [7]): 162 pg/ug pr | Rb (SKMEL5 xenograft; [7]): 0.23 pg/ug pr | SRFP-1 (SKMEL5 xenograft; [7]): 0.08 pg/ug pr | VEGF (SKMEL5 xenograft; [7]): 0.8 pg/ug pr | Wnt3A (SKMEL5 xenograft; [7]): 6.2 pg/ug pr | c-Met (SKMEL5 xenograft; [7]): 0.51 ng/ug pr | dephospho β-catenin (SKMEL5 xenograft; [7]): 7.4 Units/ug pr | phospho-GSK3β (SKMEL5 xenograft; [7]): 44.0 Units/ug pr | phospho-Rb (SKMEL5 xenograft; [7]): 0.62 Units/ug pr | phospho-cMet (SKMEL5 xenograft; [7]): 15.7 pg lys cal/ug pr | β-catenin (SKMEL5 xenograft; [7]): 31 pg/ug pr | change in active (dephospho) β-catenin with treatment (SKMEL5 xenograft; wt SKMEL5 tumors, sorafenib): decreased | change in GSK3β phosphorylation with treatment (SKMEL5 xenograft; wt SKMEL5 tumors, sorafenib, total cellular protein): A reduction in GSK3β phosphorylation was not observed | Akt [2, 8]: 2.2 pg/ug pr | GSK3β [2, 8]: 50 pg/ug pr | Rb [2, 8]: 0.96 pg/ug pr | SRFP-1 [2, 8]: 0.35 pg/ug pr | VEGF [2, 8]: 8.5 pg/ug pr | Wnt3A [2, 8]: 12.0 pg/ug pr | c-Met [2, 8]: 0.16 ng/ug pr | dephospho β-catenin [2, 8]: 3.0 Units/ug pr | phospho-GSK3β [2, 8]: 11.1 Units/ug pr | phospho-Rb [2, 8]: 0.13 Units/ug pr | phospho-cMet [2, 8]: 1.8 pg lys cal/ug pr | phosphor-Akt [2, 8]: 5.9 Units/ug pr | β-catenin [2, 8]: 16 pg/ug pr | change in levels of active β-catenin with treatment ([2]; shRNA transfected A375 tumors, sorafenib): reduction in levels of active β-catenin | change in VEGF levels with treatment (786-0 xenograft; 786-0, treated vs untreated): increased levels of VEGF | Akt [3]: 1.6 pg/ug pr | GSK3β [3]: 24 pg/ug pr | Rb [3]: 0.27 pg/ug pr | SRFP-1 [3]: 0.22 pg/ug pr | VEGF [3]: 2.6 pg/ug pr | c-Met [3]: 0.10 ng/ug pr | dephospho β-catenin [3]: 2.9 Units/ug pr | phospho-GSK3β [3]: 6.6 Units/ug pr | phospho-Rb [3]: 0.10 Units/ug pr | phospho-cMet [3]: 1.4 pg lys cal/ug pr | phosphor-Akt [3]: 6.1 Units/ug pr | β-catenin [3]: 21 pg/ug pr | sorafenib-induced apoptosis (A375 cells; A375 cells, down-modulation of GSK3β with shRNA): increase sorafenib-induced apoptosis | sorafenib-induced apoptosis (A375 cells; wild type A375 cells, endogenous active GSK3β): resistance to sorafenib-induced apoptosis

CCN(CC)CCNC(=O)c1c(C)[nH]c(/C=C2\C(=O)Nc3ccc(F)cc32)c1C [sunitinib]
Akt (A498 xenograft): 6.3 pg/ug pr | E-Cadherin (A498 xenograft): 0.0 pg/ug pr | GSK3β (A498 xenograft): 24 pg/ug pr | Rb (A498 xenograft): 0.00 pg/ug pr | SRFP-1 (A498 xenograft): 0.15 pg/ug pr | VEGF (A498 xenograft): 5.8 pg/ug pr | Wnt3A (A498 xenograft): 8.8 pg/ug pr | c-Met (A498 xenograft): 1.47 ng/ug pr | dephospho β-catenin (A498 xenograft): 3.4 Units/ug pr | phospho-GSK3β (A498 xenograft): 14.2 Units/ug pr | phospho-Rb (A498 xenograft): 0.08 Units/ug pr | phospho-cMet (A498 xenograft): 73.6 pg lys cal/ug pr | phosphor-Akt (A498 xenograft): 59.1 Units/ug pr | β-catenin (A498 xenograft): 34 pg/ug pr | Akt (786-0 xenograft; [9]): 9.3 pg/ug pr | E-Cadherin (786-0 xenograft; [9]): 0.1 pg/ug pr | GSK3β (786-0 xenograft; [9]): 61 pg/ug pr | Rb (786-0 xenograft; [9]): 6.48 pg/ug pr | SRFP-1 (786-0 xenograft; [9]): 0.23 pg/ug pr | VEGF (786-0 xenograft; [9]): 38.3 pg/ug pr | Wnt3A (786-0 xenograft; [9]): 11.8 pg/ug pr | c-Met (786-0 xenograft; [9]): 1.26 ng/ug pr | dephospho β-catenin (786-0 xenograft; [9]): 23.3 Units/ug pr | phospho-GSK3β (786-0 xenograft; [9]): 5.9 Units/ug pr | phospho-Rb (786-0 xenograft; [9]): 0.14 Units/ug pr | phospho-cMet (786-0 xenograft; [9]): 31.5 pg lys cal/ug pr | phosphor-Akt (786-0 xenograft; [9]): 78.5 Units/ug pr | β-catenin (786-0 xenograft; [9]): 82 pg/ug pr
